Source: paper PMC4485422 (Neuron, 2015)

Molecular target: sepiapterin reductase (hSPR) (Homo sapiens, UniProt P35270)
Assay: cell-free TR-FRET binding assay

sepiapterin reductase (hSPR), sequence (P35270 whole entry): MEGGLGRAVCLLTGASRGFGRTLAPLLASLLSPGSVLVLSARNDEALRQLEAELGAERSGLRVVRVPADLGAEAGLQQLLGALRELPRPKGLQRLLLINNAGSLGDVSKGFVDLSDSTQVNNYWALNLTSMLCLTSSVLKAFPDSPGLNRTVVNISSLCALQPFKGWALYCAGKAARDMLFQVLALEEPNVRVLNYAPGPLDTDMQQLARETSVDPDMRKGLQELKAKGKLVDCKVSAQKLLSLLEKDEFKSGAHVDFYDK

CC(=O)NCCc1c[nH]c2ccc(O)cc12 [NAS, N-acetylserotonin]
IC50: 1.9 µM
